The source of these data is the PolyMetriX glass transition set.

± gives the standard deviation of the reports.

`*C(=O)c1ccc2c(c1)C(=O)N(c1cc(N3C(=O)c4ccc(*)cc4C3=O)cc(C(F)(F)F)c1)C2=O` (repeat unit) came in with a glass transition temperature of 294.8 ± 1.1 °C.

For `*C(=O)c1ccc2c(c1)C(=O)N(c1ccc(C(=O)c3ccc(N4C(=O)c5ccc(*)cc5C4=O)cc3)cc1)C2=O` (repeat unit), the glass transition temperature is 293.00 ± 4.9 °C.

Compound `*C(=O)c1ccc2c(c1)C(=O)N(c1ccc(N3C(=O)c4ccc(*)cc4C3=O)cc1)C2=O` (repeat unit) showed a glass transition temperature of 325.00 ± 11 °C.

Regarding `*C(=O)c1ccc2c(c1)C(=O)N(c1ccc(Oc3ccc(C(c4ccc(Oc5ccc(N6C(=O)c7ccc(*)cc7C6=O)cc5)cc4)(C(F)(F)F)C(F)(F)F)cc3)cc1)C2=O` (repeat unit), the glass transition temperature came to 248.8 ± 18 °C.

On to `*C(=O)c1ccc2c(c1)C(=O)N(c1ccc(Oc3ccc(N4C(=O)c5ccc(*)cc5C4=O)cc3)cc1)C2=O` (repeat unit), for which the glass transition temperature amounted to 290.00 ± 28 °C.

Take `*C(=O)c1ccc2c(c1)C(=O)N(c1cccc(Cc3cccc(N4C(=O)c5ccc(*)cc5C4=O)c3)c1)C2=O` (repeat unit): the glass transition temperature is 249.50 ± 20 °C.

In turn, `*C(=O)c1ccc2c(c1)C(=O)N(c1cccc(S(=O)(=O)c3cccc(N4C(=O)c5ccc(*)cc5C4=O)c3)c1)C2=O` (repeat unit) showed a glass transition temperature of 275.50 ± 3.5 °C.

`*C(=S)Nc1ccc(Oc2ccc(NC(=S)n3c(=O)c4cc5c(=O)n(*)c(=O)c5cc4c3=O)cc2)cc1` (repeat unit) displayed a glass transition temperature of 265.00 °C.

Regarding `*C(C)C(*)C(=O)OCC` (repeat unit), the glass transition temperature came out at 157.00 °C.

`*C(C)C(*)C(=O)OCCC` (repeat unit) showed a glass transition temperature of 116.00 °C.

The compound `*C(C)C(*)C(=O)OCCCC` (repeat unit) showed a glass transition temperature of 90.00 °C.

`*C(F)(F)C(*)(F)OC(F)(F)C(F)(F)F` (repeat unit) registered a glass transition temperature of 29.00 °C.

With `*CC(OC(C)=O)C(CCC(C)(O)C=C)C(*)(C)C` (repeat unit), the glass transition temperature turned out to be 85.00 °C.

The compound `*CC(c1ccccc1)C1C(=O)NC(=O)C1*` (repeat unit) yielded a glass transition temperature of 246.00 °C.

For `*CC/C=C(/*)C(C)C` (repeat unit), the glass transition temperature was -47.00 °C.

`*CC/C=C(/*)CCCCCCC` (repeat unit) registered a glass transition temperature of -83.00 °C.

In the case of `*Oc1ccc(C2(c3ccc(Oc4ccc(C(=O)c5cccc6cccc(C(=O)c7ccc(*)cc7)c56)cc4)cc3)c3ccccc3-c3ccccc32)cc1` (repeat unit), the glass transition temperature is 269.00 °C.

Compound `*Oc1ccc(Oc2ccc(C(=O)c3cccc4cccc(C(=O)c5ccc(*)cc5)c34)cc2)cc1` (repeat unit) yielded a glass transition temperature of 202.00 °C.

For the compound `*Oc1ccc(Oc2ccc(C(=O)c3ccccc3-c3ccccc3C(=O)c3ccc(*)cc3)cc2)cc1` (repeat unit), the glass transition temperature stood at 175.00 °C.

Turning to `*c1cc(CCCCCCCC)c(*)s1` (repeat unit), the glass transition temperature was -13.10 ± 5.5 °C.

`*c1cc(CCCCCCCCCCCC)c(*)s1` (repeat unit): the glass transition temperature is -24.2 ± 8.1 °C.

For the compound `*c1ccc(-c2ccc(-n3c(=O)c4cc5c(=O)n(*)c(=O)c5cc4c3=O)cc2C(F)(F)F)c(C(F)(F)F)c1` (repeat unit), the glass transition temperature was 379.00 ± 21 °C.

`*c1ccc(-c2ccc(-n3c(=O)c4cc5c(=O)n(*)c(=O)c5cc4c3=O)cc2OC(F)(F)F)c(OC(F)(F)F)c1` (repeat unit) showed a glass transition temperature of 373.50 ± 15 °C.

With `*c1ccc(/C=C(\C#N)c2cc(OCCCCCCCC)c(/C(C#N)=C/c3ccc(N(*)c4ccccc4)cc3)cc2OCCCCCCCC)cc1` (repeat unit), the glass transition temperature came to 78.00 °C.

Turning to `*c1ccc(C(=O)c2cccc(-n3c(=O)c4cc5c(=O)n(*)c(=O)c5cc4c3=O)c2)cc1` (repeat unit), the glass transition temperature was 340.00 ± 11 °C.

Regarding `*c1ccc(C(c2ccc(-n3c(=O)c4cc5c(=O)n(*)c(=O)c5cc4c3=O)cc2)(C(F)(F)F)C(F)(F)F)cc1` (repeat unit), the glass transition temperature stood at 362.50 ± 25 °C.

In turn, `*c1ccc(Cc2ccccc2-n2c(=O)c3cc4c(=O)n(*)c(=O)c4cc3c2=O)cc1` (repeat unit) showed a glass transition temperature of 356.50 °C.

`*c1ccc(Oc2ccc(C(c3ccc(Oc4ccc(-n5c(=O)c6cc7c(=O)n(*)c(=O)c7cc6c5=O)cc4)cc3)(C(F)(F)F)C(F)(F)F)cc2)cc1` (repeat unit) registered a glass transition temperature of 302.50 ± 11 °C.

`*c1ccc(Oc2ccc(N3C(=O)c4ccc(Oc5ccc(C(c6ccc(Oc7ccc8c(c7)C(=O)N(*)C8=O)cc6)(C(F)(F)F)C(F)(F)F)cc5)cc4C3=O)cc2)cc1` (repeat unit) yielded a glass transition temperature of 226.50 ± 43 °C.

As for `*c1ccc(Oc2ccc(N3C(=O)c4ccc(Oc5ccc6c(c5)C(=O)N(*)C6=O)cc4C3=O)cc2)cc1` (repeat unit), the glass transition temperature was found to be 269.00 ± 14 °C.

As for `*c1ccc(Oc2ccc(N3C(=O)c4cccc(Oc5cccc6c5C(=O)N(*)C6=O)c4C3=O)cc2)cc1` (repeat unit), the glass transition temperature amounted to 293.8 ± 1.8 °C.

`*c1ccc(Oc2ccc(Oc3ccc(N4C(=O)c5cccc(Oc6cccc7c6C(=O)N(*)C7=O)c5C4=O)cc3)cc2)cc1` (repeat unit) displayed a glass transition temperature of 260.50 ± 3.5 °C.

In the case of `*c1ccc(Oc2ccccc2-n2c(=O)c3cc4c(=O)n(*)c(=O)c4cc3c2=O)cc1` (repeat unit), the glass transition temperature was found to be 386.00 °C.

As for `*c1ccc2c(c1)C(=O)N(c1ccc(S(=O)(=O)c3ccc(N4C(=O)c5ccc(C(*)(C(F)(F)F)C(F)(F)F)cc5C4=O)cc3)cc1)C2=O` (repeat unit), the glass transition temperature amounted to 336.50 ± 0.7 °C.

In turn, `*c1ccc2c(c1)C(=O)N(c1cccc(Oc3cccc(Oc4cccc(N5C(=O)c6ccc(C(*)(C(F)(F)F)C(F)(F)F)cc6C5=O)c4)c3)c1)C2=O` (repeat unit) yielded a glass transition temperature of 206.50 ± 0.7 °C.

With `*c1ccc2c3ccc(-c4ccc(-c5ccc(-c6ccc(*)s6)c6nsnc56)s4)cc3n(C(CCCCCCCC)CCCCCCCC)c2c1` (repeat unit), the glass transition temperature came out at 121.00 ± 7.1 °C.

`*c1cccc(-c2ccc3[nH]c(S(=O)(=O)c4nc5ccc(*)cc5[nH]4)nc3c2)c1` (repeat unit) had a glass transition temperature of 290.00 °C.

The compound `*c1cccc(S(=O)(=O)c2cccc(-n3c(=O)c4cc5c(=O)n(*)c(=O)c5cc4c3=O)c2)c1` (repeat unit) came in with a glass transition temperature of 360.00 °C.

`*c1cccc(S(=O)(=O)c2cccc(N3C(=O)c4ccc(Oc5ccc6c(c5)C(=O)N(*)C6=O)cc4C3=O)c2)c1` (repeat unit) gave a glass transition temperature of 246.00 ± 4.7 °C.

Turning to `*c1cnc(C2C(c3ccccc3)C(*)C2c2ccccc2)cn1` (repeat unit), the glass transition temperature amounted to 150.00 °C.

For `*c1nc(C)nc(N(CCCCCCN(*)c2ccccc2)c2ccccc2)n1` (repeat unit), the glass transition temperature was 67.00 °C.

In the case of `*c1nc(C)nc(N(CCCCN(*)c2ccccc2)c2ccccc2)n1` (repeat unit), the glass transition temperature was 85.00 °C.

On to `*c1nnc(-c2cc(CCCCCCCC)c(-c3ccc(-c4sc(-c5nnc(-c6cc(OCCCCCCCC)c(*)cc6OCCCCCCCC)o5)cc4CCCCCCCC)s3)s2)o1` (repeat unit), for which the glass transition temperature was determined as 34.10 °C.
